Experimental data as given in ChEMBL document CHEMBL1131669, “Synthesis of dihydroxanthone derivatives and evaluation of their inhibitory activity against acetylcholinesterase: unique structural analogs of tacrine based on the BCD-ring of arisugacin” (Bioorg Med Chem Lett, 1999).

Tests used:
[1] = In vitro inhibitory activity against acetylcholinesterase
Cholinesterase = Cholinesterase (Homo sapiens, UniProt P06276); assay: In vitro inhibitory activity against Butyrylcholinesterase
Sequence of Cholinesterase (P06276 whole entry): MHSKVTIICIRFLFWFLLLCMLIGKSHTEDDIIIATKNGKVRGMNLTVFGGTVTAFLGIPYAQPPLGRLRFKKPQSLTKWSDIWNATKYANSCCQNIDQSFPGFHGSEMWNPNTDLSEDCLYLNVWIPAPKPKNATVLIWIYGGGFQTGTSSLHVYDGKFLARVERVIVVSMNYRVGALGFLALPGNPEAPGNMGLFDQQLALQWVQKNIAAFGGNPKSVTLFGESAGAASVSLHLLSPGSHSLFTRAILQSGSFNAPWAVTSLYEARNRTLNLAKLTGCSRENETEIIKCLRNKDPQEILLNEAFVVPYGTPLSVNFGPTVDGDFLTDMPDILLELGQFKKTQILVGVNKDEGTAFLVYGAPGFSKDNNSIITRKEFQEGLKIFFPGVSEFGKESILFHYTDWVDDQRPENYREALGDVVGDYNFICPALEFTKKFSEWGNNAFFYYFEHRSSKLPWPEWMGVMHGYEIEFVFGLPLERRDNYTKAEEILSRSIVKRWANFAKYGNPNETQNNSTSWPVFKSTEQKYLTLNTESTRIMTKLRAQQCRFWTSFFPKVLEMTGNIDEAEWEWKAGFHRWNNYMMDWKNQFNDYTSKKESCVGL

| SMILES | IC50 [1] [nM] | IC50 (Cholinesterase) [nM] |
| --- | --- | --- |
| CO[C@@H]1C=CC[C@@H]2Oc3ccc(F)cc3C(=O)[C@@]21C#N | 280 | > 2000 |
| COC1=CC2CCC1C1Oc3ccccc3C(=O)[C@]21C#N (stereo not given in full) | > 2000 | > 2000 |
| COC1C=CC[C@@H]2Oc3ccc(C)cc3C(=O)[C@]12C#N (stereo not given in full) | 790 | > 2000 |
| CO[C@@H]1C=CC[C@@H]2Oc3ccc(Cl)cc3C(=O)[C@@]21C#N | 240 | 270 |
| COC1C=C(O[Si](C)(C)C(C)(C)C)C[C@@H]2Oc3ccccc3C(=O)[C@]12C#N (stereo not given in full) | > 2000 | 350 |
| N#C[C@]12C(=O)c3ccccc3OC1C1C=CC2CC1 (stereo not given in full) | 580 | > 2000 |
| COc1ccc2c(c1)C(=O)[C@]1(C#N)C(OC)C=CC[C@@H]1O2 (stereo not given in full) | 620 | 1410 |
| CO[C@@H]1C=CC[C@@H]2Oc3ccccc3C(=O)[C@@]21C#N | 1120 | > 2000 |
| CO[C@@H]1C=CC[C@@H]2Oc3ccc(Br)cc3C(=O)[C@@]21C#N | 1420 | 730 |
| COC1CC(=O)C[C@@H]2Oc3ccccc3C(=O)[C@]12C#N (stereo not given in full) | 320 | > 2000 |
